What was measured:
[1] = Hygroscopicity and long-term storage of the known hydrochloride (disclosure section); format: physicochemical
[2] = Evaluation of hygroscopicity (dynamic steam adsorption, weight change); format: physicochemical; details: for Deliquescence during water absorption measurement: 5–95% relative humidity; for Weight Change (%): within the range 5–95% relative humidity
Description: A sample (about 5 mg) was placed in a purpose-made quartz holder, and the sample weight at the respective humidity was continuously measured and recorded in the following conditions. The apparatus including data processing was operated according to the method and procedure directed in each device. (Apparatus: dynamic steam adsorption measuring apparatus DVS Advantage, made by SMS)

[3] = Evaluation of stability (2): stress testing, impurities by LC, UV at 210 nm; format: physicochemical
Description: A sample (about 5 mg) was weighed in a glass mess-flask of 10 mL and applied to a stress testing in the following storage conditions. • Condition 1: 5° C.—shading—tightly closed • Condition 2: 40° C.—relative humidity 75%—open • Condition 3: 60° C.—shading—tightly closed • Condition 4: 80° C.—shading—tightly closed • Condition 5: 25° C.—D65 (1000 lux)—tightly closed
Chemical stability: After storage, MeOH was placed in the mess-flask containing the sample up to the level of the marked line, and the resulting solution was used as a sample solution. The sample solution was diluted 100 times with MeOH to prepare a standard solution, which was used in determination of impurities contained in the sample solution. Detection of the impurities was performed by means of UV at 210 nm. […] (Apparatus: LC-MSD 1100 series, made by Agilent)

[4] = Evaluation of stability (1): forced degradation test, impurities by LC; details: for Change from Impurity Amt. before Storage (%), Condition 3 / Change from Impurity Amt. before Storage (%), Condition 2: 25° C., 5 days; for Change from Impurity Amt. before Storage (%), Condition 3: NUV (near ultraviolet ray) irradiated; for Change from Impurity Amt. before Storage (%), Condition 3 / Change from Impurity Amt. before Storage (%), Condition 1: tightly closed; for Change from Impurity Amt. before Storage (%), Condition 2: relative humidity 93%, open; for Change from Impurity Amt. before Storage (%), Condition 1: 120° C., 24 hours
Description: A sample after storage was dissolved in 1 mL of MeOH and used as a sample solution. The sample solution was diluted 100 times with MeOH and used as a standard solution. Impurities contained in the sample solution was quantitatively analyzed using the standard solution. In this determination, the apparatus including data processing was operated according to the method and procedure directed in each device. (Apparatus: LC-MSD 1100 series, made by Agilent)

muscarinic M3 receptors [5] = molecular target: muscarinic M3 receptors (Homo sapiens, UniProt P20309); details: made public in Patent document 1 (EP 0 801 067); cited from earlier work
muscarinic M3 receptors (Homo sapiens, UniProt P20309), sequence (P20309 whole entry): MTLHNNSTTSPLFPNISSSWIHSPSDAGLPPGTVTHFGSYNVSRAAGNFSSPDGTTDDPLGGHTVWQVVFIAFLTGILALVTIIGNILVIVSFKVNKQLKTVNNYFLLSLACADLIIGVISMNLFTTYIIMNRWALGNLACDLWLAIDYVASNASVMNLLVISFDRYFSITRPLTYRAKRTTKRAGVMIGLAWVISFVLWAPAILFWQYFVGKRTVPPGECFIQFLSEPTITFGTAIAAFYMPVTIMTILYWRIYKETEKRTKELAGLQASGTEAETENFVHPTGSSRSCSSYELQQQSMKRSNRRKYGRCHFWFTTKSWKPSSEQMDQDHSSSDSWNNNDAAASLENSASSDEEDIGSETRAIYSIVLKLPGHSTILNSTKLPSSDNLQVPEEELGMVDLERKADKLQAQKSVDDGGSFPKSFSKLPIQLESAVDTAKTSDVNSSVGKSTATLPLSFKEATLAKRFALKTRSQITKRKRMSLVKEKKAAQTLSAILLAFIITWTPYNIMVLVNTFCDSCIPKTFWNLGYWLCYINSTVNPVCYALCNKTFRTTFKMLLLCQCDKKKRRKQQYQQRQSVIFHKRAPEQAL

muscarinic M3 receptors [6] = molecular target: T1, muscarinic M3 receptors (Cavia porcellus, UniProt H0W1Z3); assay: Functional affinity estimate for muscarinic M3 receptors in bladders (carbachol-induced intracellular Ca2+ change in bladder smooth muscle cells); format: cell-based, guinea pig
T1 construct: Smooth muscle cells were isolated from guinea pig bladders; from tissue; host or cells: smooth muscle cells freshly isolated from guinea pig bladder
T1 sequence (H0W1Z3 1-590): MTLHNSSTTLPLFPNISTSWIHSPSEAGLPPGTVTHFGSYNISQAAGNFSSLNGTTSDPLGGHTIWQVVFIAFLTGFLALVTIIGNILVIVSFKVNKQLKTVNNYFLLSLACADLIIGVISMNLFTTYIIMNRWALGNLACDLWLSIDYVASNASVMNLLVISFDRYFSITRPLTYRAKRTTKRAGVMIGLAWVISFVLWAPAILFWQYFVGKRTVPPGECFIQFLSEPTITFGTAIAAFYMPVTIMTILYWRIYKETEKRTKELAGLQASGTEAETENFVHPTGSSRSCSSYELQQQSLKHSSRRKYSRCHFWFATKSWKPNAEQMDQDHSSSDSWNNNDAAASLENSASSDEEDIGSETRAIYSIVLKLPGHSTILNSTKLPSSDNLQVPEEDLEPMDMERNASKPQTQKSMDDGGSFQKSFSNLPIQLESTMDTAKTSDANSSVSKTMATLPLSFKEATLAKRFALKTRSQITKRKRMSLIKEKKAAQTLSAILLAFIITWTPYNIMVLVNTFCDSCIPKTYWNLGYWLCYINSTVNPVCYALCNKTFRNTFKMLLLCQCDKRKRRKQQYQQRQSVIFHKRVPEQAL
Description: Below, the method is described in brief.
Smooth muscle cells were isolated from guinea pig bladders from which the […] had been removed, loaded with a calcium-sensitive fluorescent dye Fura2 and suspended in phenol red-free Hanks' buffer solution supplemented with 20 mM HEPES (pH 7.4) and 0.1% bovine serum albumin. An aliquot of cell suspension (490 μL) was continuously stirred, kept at 28° C. and monitored for the ratio of fluorescence (500 nm) at 340 nm excitation to that at 380 nm excitation. To each aliquot, 5 μL of test compound and carbachol solutions were serially added with a 2 minute interval, and the peak increase in the ratio over the level just before stimulation was used in data analysis.

[7] = test system: carbachol-evoked bladder contraction; assay: Inhibitory effects on carbachol-evoked bladder contraction in anesthetized mice; format: in vivo; details: anesthetized female mice, i.v., carbachol 10 μg/kg, intravesical pressure
Description: The method for determination of inhibitory effects of test compounds on bladder contraction is described as follows.
Female mice, weighing 30 to 35 g, were anesthetized with a sub-lethal dose (75 mg/kg, i.v.) of sodium pentobarbital and placed supine on a heating pad to maintain the body temperature. A polyethylene catheter (PE10) was cannulated to the bladder via the urethra and secured by purse-string suture at the external urethral opening. Another catheter was inserted into the femoral vein for injections of drug solutions at a […]. The bladder catheter was connected to a pressure transducer through a three-way stopcock valve. The bladder was emptied by drainage of urine through the catheter, and then distended with about 100 μL of physiological saline, and the intravesical pressure was measured.
After intravesical pressure stabilization, the muscarinic agonist carbachol (10 μg/kg) was administered repeatedly with an interval of 15 minutes or longer. By this means, bladder contractions occurred in a reproducible manner over 2 hours without deterioration of physical conditions. After three responses to carbachol were obtained, a test compound injection was followed by carbachol administration 10 minutes later and this procedure was repeated with increasing doses of the test compound. In four or five mice per test compound, the percent inhibition of means of prior drug responses was obtained and the dose of test compound required for 50% inhibition (ID50) was estimated by the linear regression analysis. Mice showing rhythmic bladder constriction were not used for the data analysis.

[8] = 25° C., listed as Compound A hydrochloride, hydrochloride
[9] = Condition 1: 5° C., shading, tightly closed, 1 month
[10] = Condition 1: 5° C., shading, tightly closed, 2 months
[11] = Condition 1: 5° C., shading, tightly closed, 2 weeks
[12] = Condition 2: 40° C., relative humidity 75%, open, 1 month
[13] = Condition 2: 40° C., relative humidity 75%, open, 2 months
[14] = Condition 2: 40° C., relative humidity 75%, open, 2 weeks
[15] = Condition 3: 60° C., shading, tightly closed, 1 month
[16] = Condition 3: 60° C., shading, tightly closed, 2 months
[17] = Condition 3: 60° C., shading, tightly closed, 2 weeks
[18] = Condition 4: 80° C., shading, tightly closed, 1 month
[19] = Condition 4: 80° C., shading, tightly closed, 2 months
[20] = Condition 4: 80° C., shading, tightly closed, 2 weeks
[21] = Condition 5: 25° C., D65 (1000 lux), tightly closed, 1 month
[22] = Condition 5: 25° C., D65 (1000 lux), tightly closed, 2 months
[23] = Condition 5: 25° C., D65 (1000 lux), tightly closed, 2 weeks

| SMILES | Impurities (%) [3, 9] [%] | Impurities (%) [3, 10] [%] | Impurities (%) [3, 11] [%] | Impurities (%) [3, 12] [%] | Impurities (%) [3, 13] [%] | Impurities (%) [3, 14] [%] | Impurities (%) [3, 15] [%] | Impurities (%) [3, 16] [%] | Impurities (%) [3, 17] [%] | Impurities (%) [3, 18] [%] | Impurities (%) [3, 19] [%] | Impurities (%) [3, 20] [%] | Impurities (%) [3, 21] [%] | Impurities (%) [3, 22] [%] | Impurities (%) [3, 23] [%] | Change from Impurity Amt. before Storage (%), Condition 3 [4] [%] | Change from Impurity Amt. before Storage (%), Condition 2 [4] [%] | Change from Impurity Amt. before Storage (%), Condition 1 [4] [%] | Impurities before Storage (%) [4] [%] | also measured |
| --- | --- | --- | --- | --- | --- | --- | --- | --- | --- | --- | --- | --- | --- | --- | --- | --- | --- | --- | --- | --- |
| Cl.O=C(O[C@H]1CN2CCC1CC2)N1CCc2ccccc2[C@@H]1c1ccccc1 [Reference Example 2, Compound A hydrochloride, reference compound] | 0.21 | 0.18 | 0.25 | 8.19 | 9.20 | 8.72 | 0.22 | 0.24 | 0.34 | 0.39 | 0.47 | 0.43 | 2.38 | 3.68 | 1.73 | 2.0 | 3.8 | 0.2 | 0.1 | Impurities during long-term storage ([1]; long-term storage): increase of impurities during long-term storage; Hygroscopicity in a conventional environment ([1]; relative humidity of 70% (room temperature)): so hygroscopic as to deliquesce; Deliquescence during water absorption measurement ([2]; 25° C., hydrochloride): deliquescent; Deliquescence during water absorption measurement [2, 8]: accompanied by deliquescence; Relative humidity at which rapid moisture uptake began ([2]; 25° C., FIG. 1): about 65 % relative humidity; Weight Change (%) ([2]; 25° C., hydrochloride): > 35%; Weight Change (%) [2, 8]: exceeded 35%; Weight gain by absorption of moisture ([2]; at 75% or more relative humidity): ≥ 15%; Stability to humidity ([4]; Condition 2 in Test Example 2 and Condition 2 in Test Example 3): not so stable to humidity; Stability to light ([4]; Condition 3 in Test Example 2 and Condition 5 in Test Example 3): not so stable; Increase of impurities during storage ([4]; Table 2 and Table 3): impurities increased during storage |
| O=C(O[C@H]1CN2CCC1CC2)N1CCc2ccccc2[C@H]1c1ccccc1 [Compound A, (−)-(3R)-quinuclidin-3-yl(1R)-1-phenyl-1,2,3,4-tetrahydroisoquinoline-2-carboxylate] | – | – | – | – | – | – | – | – | – | – | – | – | – | – | – | – | – | – | – | Affinity and selectivity for muscarinic M3 receptors (muscarinic M3 receptors [5]): displays an affinity and selectivity for muscarinic M3 receptors |
| O=C(O[C@H]1CN2CCC1CC2)N1CCc2ccccc2[C@H]1c1ccccc1 [Example 1, (−)-(3R)-quinuclidin-3-yl(1R)-1-phenyl-1,2,3,4-tetrahydroisoquinoline-2-carboxylate (−)-(2S,3S)-tartrate] | 0.00 | 0.00 | 0.00 | 0.00 | 0.00 | 0.00 | 0.00 | 0.00 | 0.00 | 0.00 | 0.00 | 0.00 | 0.00 | 0.00 | 0.00 | −0.3 | −0.1 | 0.2 | 1.5 | IC50 (muscarinic M3 receptors [6]; IC50 (ng/mL), inhibition of carbachol-induced Ca2+ increase, guinea pig bladder smooth muscle cells, Fura2): 6.62 nM; Ki (muscarinic M3 receptors [6]; Ki (nM), IC50 converted by Cheng-Prusoff equation based on EC50 of carbachol): 0.68 ± 0.21 nM; Weight Change (%) ([2]; 25° C.): <1%; ID50 (dose required for 50% inhibition of bladder contraction) [7]: 0.079 mg/kg |
